Columns and labels:
purple nutsedge = assay: Test B pre/postemergence purple nutsedge; type: in vivo, Cyperus rotundus; details: for Nutsedge plant response rating: scale of 0 to 10 where 0 is no effect and 10 is complete control
How it was run: (§1)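 Response is a visual 0-to-10 score relative to untreated plants, where 0 means no effect and 10 means complete control, taken twelve to sixteen days after application. Treatments went onto soil at planting and onto foliage of 1- to 4-leaf plants, using a surfactant-containing non-phytotoxic solvent.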

bamyardgrass = assay: Test B flood test barnyardgrass; type: in vivo, Echinochloa crus-galli
How it was run: (§2)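 Flood test on plants grown to the 2-leaf stage; treated plants kept in greenhouse twelve to sixteen days, then visually rated against controls on a 0 (no effect) to 10 (complete control) scale.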

corn = assay: Test B pre/postemergence corn; type: in vivo, Zea mays; details: for Corn plant response rating: scale of 0 to 10 where 0 is no effect and 10 is complete control
How it was run: as §1

soybean = assay: Test B pre/postemergence soybean; type: in vivo, Glycine max; details: for Soybean plant response rating: scale of 0 to 10 where 0 is no effect and 10 is complete control
How it was run: as §1

wild oat = assay: Test B pre/postemergence wild oat; type: in vivo, Avena fatua; details: for Wild oats plant response rating: scale of 0 to 10 where 0 is no effect and 10 is complete control
How it was run: as §1

rape = assay: Test B pre/postemergence rape; type: in vivo, Brassica napus; details: for Rape plant response rating: scale of 0 to 10 where 0 is no effect and 10 is complete control
How it was run: as §1

giant foxtail = assay: Test B pre/postemergence giant foxtail; type: in vivo, Setaria faberii; details: for Giant foxtail plant response rating: scale of 0 to 10 where 0 is no effect and 10 is complete control
How it was run: as §1

duck salad = assay: Test B flood test duck salad; type: in vivo, Heteranthera limosa
How it was run: as §2

sugar beet = assay: Test B pre/postemergence sugar beet; type: in vivo, Beta vulgaris; details: for Sugarbeets plant response rating: scale of 0 to 10 where 0 is no effect and 10 is complete control
How it was run: as §1

wheat = assay: Test B pre/postemergence wheat; type: in vivo, Triticum aestivum; details: for Wheat plant response rating: scale of 0 to 10 where 0 is no effect and 10 is complete control
How it was run: as §1

morningglory = assay: Test B pre/postemergence morningglory; type: in vivo, Ipomoea hederacea; details: for Morningglory plant response rating: scale of 0 to 10 where 0 is no effect and 10 is complete control
How it was run: as §1

pigweed = assay: Test B pre/postemergence pigweed; type: in vivo, Amaranthus retroflexus; details: for Redroot pigweed plant response rating: scale of 0 to 10 where 0 is no effect and 10 is complete control
How it was run: as §1

cocklebur = assay: Test B pre/postemergence cocklebur; type: in vivo, Xanthium strumarium; details: for Cocklebur plant response rating: scale of 0 to 10 where 0 is no effect and 10 is complete control
How it was run: as §1

crabgrass = assay: Test B pre/postemergence crabgrass; type: in vivo, Digitaria sanguinalis; details: for Crabgrass plant response rating: scale of 0 to 10 where 0 is no effect and 10 is complete control
How it was run: as §1

velvetleaf = assay: Test B pre/postemergence velvetleaf; type: in vivo, Abutilon theophrasti; details: for Velvetleaf plant response rating: scale of 0 to 10 where 0 is no effect and 10 is complete control
How it was run: as §1

rice = assay: Test B flood test rice; type: in vivo, Oryza sativa
How it was run: as §2

[1] = Postemergence, Rate 125 g/ha, scale 0 to 10, 0 is no effect, 10 is complete control
[2] = Rate 500 g/ha, Postemergence, scale 0 to 10, 0 no effect, 10 complete control
[3] = Rate 62 g/ha, headed Pre-emergence (flood test species), scale 0 to 10 (0 no effect, 10 complete control)
[4] = Rate 125 g/ha, Pre-emergence, flood test species, scale 0 to 10 where 0 is no effect and 10 is complete control
[5] = Rate 250 g/ha, Pre-emergence, flood-test species, scale 0 to 10, 0 is no effect, 10 is complete control
[6] = Rate 500 g/ha, Pre-emergence, flood test species, scale 0 to 10 (0 no effect, 10 complete control)

`CC(C)N(C(=O)n1oc(=O)n(C2CCCCCC2)c1=O)c1ccc(Cl)cc1` [Compound 339] was tested, and the “Plant response rating, Nutsedge” value (purple nutsedge; [1]) was 0, the “Nutsedge plant response rating” value (purple nutsedge; Preemergence, Rate 62 g/ha) was 0 and the “Nutsedge plant response rating (0 to 10 scale)” value (purple nutsedge; Preemergence, Rate 125 g/ha) was 0. The “Nutsedge plant response rating” value (purple nutsedge; Preemergence, Rate 250 g/ha) was 0, the “Nutsedge plant response rating” value (purple nutsedge; Preemergence, Rate 500 g/ha) was 0 and the “Nutsedge plant response rating” value (purple nutsedge; Rate 62 g/ha, Postemergence) was 0. The “Plant response rating, Nutsedge” value (purple nutsedge; [2]) was 0, the “Barnyardgrass plant response rating” value (bamyardgrass; [3]) was 2 and the “Barnyardgrass plant response rating” value (bamyardgrass; [4]) was 8. The “Barnyardgrass plant response rating” value (bamyardgrass; [5]) was 9, the “Barnyardgrass plant response rating” value (bamyardgrass; [6]) was 9 and the “Plant response rating, Corn” value (corn; [1]) was 0. The “Corn plant response rating” value (corn; Preemergence, Rate 62 g/ha) was 0, the “Corn plant response rating (0 to 10 scale)” value (corn; Preemergence, Rate 125 g/ha) was 0 and the “Corn plant response rating” value (corn; Preemergence, Rate 250 g/ha) was 0. For the same compound, the “Corn plant response rating” value (corn; Preemergence, Rate 500 g/ha) was 0, the “Corn plant response rating” value (corn; Rate 62 g/ha, Postemergence) was 0 and the “Plant response rating, Corn” value (corn; [2]) was 0. The “Plant response rating, Soybean” value (soybean; [1]) was 1, the “Soybean plant response rating” value (soybean; Preemergence, Rate 62 g/ha) was 0 and the “Soybean plant response rating (0 to 10 scale)” value (soybean; Preemergence, Rate 125 g/ha) was 0. For the same compound, the “Soybean plant response rating” value (soybean; Preemergence, Rate 250 g/ha) was 0, the “Soybean plant response rating” value (soybean; Preemergence, Rate 500 g/ha) was 0 and the “Soybean plant response rating” value (soybean; Rate 62 g/ha, Postemergence) was 1. For the same compound, the “Plant response rating, Soybean” value (soybean; [2]) was 4, the “Plant response rating, Wild oats” value (wild oat; [1]) was 0 and the “Wild oats plant response rating” value (wild oat; Preemergence, Rate 62 g/ha) was 0. For the same compound, the “Wild oats plant response rating (0 to 10 scale)” value (wild oat; Preemergence, Rate 125 g/ha) was 0, the “Wild oats plant response rating” value (wild oat; Preemergence, Rate 250 g/ha) was 0 and the “Wild oats plant response rating” value (wild oat; Preemergence, Rate 500 g/ha) was 0. The “Wild oats plant response rating” value (wild oat; Rate 62 g/ha, Postemergence) was 0, the “Plant response rating, Wild oats” value (wild oat; [2]) was 0 and the “Plant response rating, Rape” value (rape; [1]) was 1. The “Rape plant response rating” value (rape; Preemergence, Rate 62 g/ha) was 0, the “Rape plant response rating (0 to 10 scale)” value (rape; Preemergence, Rate 125 g/ha) was 0 and the “Rape plant response rating” value (rape; Preemergence, Rate 250 g/ha) was 0. For the same compound, the “Rape plant response rating” value (rape; Preemergence, Rate 500 g/ha) was 0, the “Rape plant response rating” value (rape; Rate 62 g/ha, Postemergence) was 0 and the “Plant response rating, Rape” value (rape; [2]) was 5. For the same compound, the “Plant response rating, Giant foxtail” value (giant foxtail; [1]) was 0, the “Giant foxtail plant response rating” value (giant foxtail; Preemergence, Rate 62 g/ha) was 1 and the “Giant foxtail plant response rating (0 to 10 scale)” value (giant foxtail; Preemergence, Rate 125 g/ha) was 3. For the same compound, the “Giant foxtail plant response rating” value (giant foxtail; Preemergence, Rate 250 g/ha) was 9, the “Giant foxtail plant response rating” value (giant foxtail; Preemergence, Rate 500 g/ha) was 10 and the “Giant foxtail plant response rating” value (giant foxtail; Rate 62 g/ha, Postemergence) was 0. The “Plant response rating, Giant foxtail” value (giant foxtail; [2]) was 0, the “Ducksalad plant response rating” value (duck salad; [3]) was 0 and the “Ducksalad plant response rating” value (duck salad; [4]) was 0. For the same compound, the “Ducksalad plant response rating” value (duck salad; [5]) was 0, the “Ducksalad plant response rating” value (duck salad; [6]) was 3 and the “Plant response rating, Sugarbeets” value (sugar beet; [1]) was 0. The “Sugarbeets plant response rating” value (sugar beet; Preemergence, Rate 62 g/ha) was 0, the “Sugarbeets plant response rating (0 to 10 scale)” value (sugar beet; Preemergence, Rate 125 g/ha) was 0 and the “Sugarbeets plant response rating” value (sugar beet; Preemergence, Rate 250 g/ha) was 0. The “Sugarbeets plant response rating” value (sugar beet; Preemergence, Rate 500 g/ha) was 0, the “Sugarbeets plant response rating” value (sugar beet; Rate 62 g/ha, Postemergence) was 0 and the “Plant response rating, Sugarbeets” value (sugar beet; [2]) was 0. The “Plant response rating, Wheat” value (wheat; [1]) was 0, the “Wheat plant response rating” value (wheat; Preemergence, Rate 62 g/ha) was 0 and the “Wheat plant response rating (0 to 10 scale)” value (wheat; Preemergence, Rate 125 g/ha) was 0. For the same compound, the “Wheat plant response rating” value (wheat; Preemergence, Rate 250 g/ha) was 0, the “Wheat plant response rating” value (wheat; Preemergence, Rate 500 g/ha) was 0 and the “Wheat plant response rating” value (wheat; Rate 62 g/ha, Postemergence) was 0. The “Plant response rating, Wheat” value (wheat; [2]) was 0, the “Plant response rating, Morningglory” value (morningglory; [1]) was 2 and the “Morningglory plant response rating” value (morningglory; Preemergence, Rate 62 g/ha) was 0. For the same compound, the “Morningglory plant response rating (0 to 10 scale)” value (morningglory; Preemergence, Rate 125 g/ha) was 0, the “Morningglory plant response rating” value (morningglory; Preemergence, Rate 250 g/ha) was 0 and the “Morningglory plant response rating” value (morningglory; Preemergence, Rate 500 g/ha) was 0. The “Morningglory plant response rating” value (morningglory; Rate 62 g/ha, Postemergence) was 2, the “Plant response rating, Morningglory” value (morningglory; [2]) was 10 and the “Plant response rating, Redroot pigweed” value (pigweed; [1]) was 2. For the same compound, the “Redroot pigweed plant response rating” value (pigweed; Preemergence, Rate 62 g/ha) was 0, the “Redroot pigweed plant response rating (0 to 10 scale)” value (pigweed; Preemergence, Rate 125 g/ha) was 0 and the “Redroot pigweed plant response rating” value (pigweed; Preemergence, Rate 250 g/ha) was 0. For the same compound, the “Redroot pigweed plant response rating” value (pigweed; Preemergence, Rate 500 g/ha) was 0, the “Redroot pigweed plant response rating” value (pigweed; Rate 62 g/ha, Postemergence) was 0 and the “Plant response rating, Redroot pigweed” value (pigweed; [2]) was 6. For the same compound, the “Plant response rating, Cocklebur” value (cocklebur; [1]) was 0, the “Cocklebur plant response rating” value (cocklebur; Preemergence, Rate 62 g/ha) was 0 and the “Cocklebur plant response rating (0 to 10 scale)” value (cocklebur; Preemergence, Rate 125 g/ha) was 0. The “Cocklebur plant response rating” value (cocklebur; Preemergence, Rate 250 g/ha) was 0, the “Cocklebur plant response rating” value (cocklebur; Preemergence, Rate 500 g/ha) was 0 and the “Cocklebur plant response rating” value (cocklebur; Rate 62 g/ha, Postemergence) was 0. For the same compound, the “Plant response rating, Cocklebur” value (cocklebur; [2]) was 0, the “Plant response rating, Crabgrass” value (crabgrass; [1]) was 0 and the “Crabgrass plant response rating” value (crabgrass; Preemergence, Rate 62 g/ha) was 0. For the same compound, the “Crabgrass plant response rating (0 to 10 scale)” value (crabgrass; Preemergence, Rate 125 g/ha) was 0, the “Crabgrass plant response rating” value (crabgrass; Preemergence, Rate 250 g/ha) was 2 and the “Crabgrass plant response rating” value (crabgrass; Preemergence, Rate 500 g/ha) was 5. For the same compound, the “Crabgrass plant response rating” value (crabgrass; Rate 62 g/ha, Postemergence) was 0, the “Plant response rating, Crabgrass” value (crabgrass; [2]) was 2 and the “Plant response rating, Velvetleaf” value (velvetleaf; [1]) was 0. For the same compound, the “Velvetleaf plant response rating” value (velvetleaf; Preemergence, Rate 62 g/ha) was 0, the “Velvetleaf plant response rating (0 to 10 scale)” value (velvetleaf; Preemergence, Rate 125 g/ha) was 0 and the “Velvetleaf plant response rating” value (velvetleaf; Preemergence, Rate 250 g/ha) was 0. For the same compound, the “Velvetleaf plant response rating” value (velvetleaf; Preemergence, Rate 500 g/ha) was 0, the “Velvetleaf plant response rating” value (velvetleaf; Rate 62 g/ha, Postemergence) was 0 and the “Plant response rating, Velvetleaf” value (velvetleaf; [2]) was 0. For the same compound, the “Rice plant response rating” value (rice; [3]) was 0, the “Rice plant response rating” value (rice; [4]) was 0 and the “Rice plant response rating” value (rice; [5]) was 0. For the same compound, the “Rice plant response rating” value (rice; [6]) was 1.

From US6737383B1, “Herbicidal oxadiazolidines” (priority 1999, dated 2004)
